Test results published in US9950026B2, “Methods for reducing oxidative damage” (Cornell Research Foundation, Inc., priority 2004, dated 2018).
Where a SMILES comes first, the peptide text is derived from it. [ ]: non-standard residue; d: D form. Dmt = Cc1cc(O)cc(C)c1C[C@H](N)C(=O)O

Experiments:
N2A cells [1] = experiment: Phosphatidylserine translocation, Annexin V and propidium iodide staining after tBHP; assay type: cell-based, murine; details: 50 μM tBHP, 1 nM SS-31, 6 h
Experimental: FIG. 19A-19C. […] N2A cells were incubated with 50 μM tBHP for 6 h and stained with Annexin V and propidium iodide (PI). […] Combined staining with Annexin V and PI (red) indicate late apoptotic cells.
The translocation of phosphatidylserine from the inner leaflet of the plasma membrane to the outer leaflet is observed early in the initiation of apoptosis. This can be observed with Annexin V, a phospholipid binding protein with high affinity for phosphatidylserine.

SN-4741 cells = experiment: MPP+ toxicity, apoptosis by Hoechst 33342; assay type: cell-based; details: 50 μM MPP+, 1 nM SS-31, 48 h
Experimental: (A) SS-31 protects dopamine cells against MPP^+ toxicity. SN-4741 cells were treated with buffer, 50 μM MPP^+ or 50 μM MPP^+ and 1 nM SS-31, for 48 h, and the incidence of apoptosis was determined by fluorescent microscopy with Hoechst 33342.

N2A cells [2] = experiment: Caspase-9 activity (FLICA) after tBHP; assay type: cell-based, murine; details: 50 μM tBHP, 12 h, 1 nM SS-31
Experimental: FIG. 21A-B. SS-31 prevented caspase activation in N2A cells treated with tBHP. […] (B)(a-c) N2A cells were treated with 50 μM tBHP for 12 h and stained with caspase-9 FLICA™ kit containing red fluorescent inhibitor SR-LEHD-FMK and Hoechst 33342.

SH-SY5Y cells = experiment: Mitochondrial function, MTT assay, after tBHP; assay type: cell-based, human; details: tBHP 50-100 μM, 24 h
Experimental: FIG. 23A-23B. SS-31 protected against tBHP-induced mitochondrial viability. (A) SS-31 protected mitochondrial viability in N2A cells treated with tBHP for 24 h. Mitochondrial viability was evaluated using the MTT assay (*P<0.01 compared to untreated cells, *P<0.05, P<0.01 compared to tBHP alone). […]
(§1) Only viable mitochondria containing NADPH dehydrogenase activity are capable of cleaving MTT to the formazan. A 50 μM tBHP induced 50% loss of mitochondrial function in N2A cells (FIG. 23A, […]) and 30% loss of mitochondrial function in SH-SY5Y cells (FIG. 23B, P<0.01). […] Treatment of N2A cells with SS-31 alone had no effect on mitochondrial function.

DBA/2 mice islets = experiment: Islets isolated from donor mice pre-treated with SS-31 (TMRM, yield, Annexin V/PI flow cytometry); assay type: in vivo
Experimental: FIG. 33A-33B. SS peptides penetrate islet cells, co-localize with mitochondria and preserve islet mitochondrial membrane potential. (A) Islet cell uptake of SS-31. DBA/2 islet cells were incubated with 1 nM of tritium labeled SS-31 and 1 μM unlabeled SS-31 at 37° C. for 1 h. Following incubation, radioactivity was measured in the medium and in cell lysates and the radioactive counts in the medium were subtracted from radioactive counts in the cell lysate and normalized to protein content. In four consecutive experiments, the mean±(SE) [^3H]SS-31 uptake was 70.2+/31 10.3 pmol/mg, of proteins (B)(i-iv) SS-31 preserves islet mitochondrial potential. DBA/2 mice were treated with SS-31 (3 mg/kg s.c. BID) or vehicle control 24 hours prior to pancreas harvest for islet isolation. SS-31 treated groups had 1 nM SS-31 added to the islet isolation reagents. Following isolation, TMRM uptake was evaluated using confocal laser scanning microscopy.
FIG. 34A-34D. SS-31 reduces islet cell apoptosis. DBA/2 mice were pre-treated (24 and 12-hours hours prior to pancreas harvest and islet isolation) with SS-31 (3 mg/kg, s.c., BID) or vehicle control. SS-31 (1 nM was added to reagents used for the isolation of islets from SS-31-treated mice. The islets were dissociated in to single cells with trypsin/EDTA and were stained with Annexin V-FITC (AnV) and propidium iodide (PI) and analyzed with the use of dual parameter low cytometry. (A) Percentage of cell undergoing early apoptosis (AnV+cells); P=0.03. (B) Percentage of cells undergoing late apoptosis/early necrosis (AnV+/PI+cells); P=0.03. (C) Percentage of necrotic cells (PI+cells); P=1.0 (D) Percentage of viable cells (AnV-/PI-cells); P=0.03. Data from individual pancreatic islet isolations and mean±SE are shown, N=number of separate islet isolations. Two-tailed P-values were calculated using Mann-Whitney t-test.
Mitochondrial depolarization and the release of cytochrome c into the cytoplasm are critical antecedent events to cell death. TMRM, a fluorescent cationic indicator is taken up into mitochondria in a potential dependent manner.
To investigate whether the SS-31 optimizes islet isolation and results in increased islet yield, islet donor mice were pre-treated with SS-31.

G93A mice = experiment: Lumbar spinal cord cell counts and immunostaining in ALS mice; assay type: in vivo
Description: FIG. 27. Attenuation of motor neuron loss by SS-31 in the ventral horn of the lumbar spinal cord of G93A mice. Photomicrographs show cresyl violet stained sections through the ventral horn of the lumbar spinal cord from non-transgenic control (A) and G93A mice treated with vehicle (PBS) (B) or SS-31 (C) at 110 days of age. […] Values are mean±standard error of means.
(§2) FIG. 28A-28C. 4-hydroxynonenol immunostaining. Photomicrographs of representative sections through the ventral horn of the lumbar spinal cord of wild-type control (A), and G93A mice treated with vehicle (B) or SS-31 (C) show generalized reduction of 4-hydroxynonenal staining in neurons and neurophils in drug-treated mice.
as §2, with “29A-29C. Nitrotyrosine” for “28A-28C. 4-hydroxynonenol”, “nitrotyrosine” for “4-hydroxynonenal”

N2A cells [3] = experiment: Mitochondrial function, MTT assay, after tBHP; assay type: cell-based, murine
Experimental: FIG. 23A-23B. SS-31 protected against tBHP-induced […]. (A) SS-31 protected mitochondrial viability in N2A cells treated with tBHP for 24 h. Mitochondrial viability was evaluated using the MTT assay (*P<0.01 compared to untreated cells, *P<0.05, P<0.01 compared to tBHP alone). (B) SS-31 protected mitochondrial viability in SH-SY5Y cells treated with tBHP for […] (*P<0.01 compared to untreated cells; **P<0.01 compared to tBHP alone).
as §1

With `Cc1cc(O)cc(C)c1C[C@H](NC(=O)[C@H](N)CCCNC(=N)N)C(=O)N[C@@H](CCCCN)C(=O)N[C@@H](Cc1ccccc1)C(N)=O` [SS-31, D-Arg-2′6′-Dmt-Lys-Phe-NH2] (H-[dR][Dmt]KF-NH2; N-terminus assumed) the “Annexin V-positive cells” value (N2A cells [1]) was “reduction”, the propidium iodide staining (N2A cells [1]) was “no propidium iodide staining” and the “number of apoptotic cells” value (SN-4741 cells) was “reduced the number of apoptotic cells”. The “cells showing caspase-9 staining” value (N2A cells [2]) was “reduced the number of cells showing caspase-9 staining”, the “tBHP-induced mitochondrial toxicity (MTT)” value (SH-SY5Y cells) was “dose-dependently reduced” and the “uptake of TMRM by islets (mitochondrial potential)” value (DBA/2 mice islets; SS-31 3 mg/kg s.c. BID to donor, 1 nM in isolation reagents) was “greater uptake of TMRM”. The “islet yield, mean±(SE)” value (DBA/2 mice islets; donor mice pre-treated with SS-31) was 291±60 islets per pancreas, the “islet cell viability (Annexin V-/PI- cells)” value (DBA/2 mice islets; donor mice treated with SS-31) was 62±3.5% and the “late apoptosis/early necrosis (Annexin V+/PI+ cells)” value (DBA/2 mice islets; donor mice treated with SS-31) was 12.6±1.8%. For the same compound, the “percentage of early apoptotic cells (Annexin V alone positive cells)” value (DBA/2 mice islets; donor mice treated with SS-31) was 5.5±1.0%, the “percentage of necrotic cells (PI+ cells)” value (DBA/2 mice islets; donor mice treated with SS-31) was “did not reduce” and the “cell loss in the lumbar spinal cord (stereological cell counts)” value (G93A mice; mouse, in vivo) was “significantly ameliorated”. The “3-nitrotyrosine immunostaining (protein nitration)” value (G93A mice; spinal cord) was “markedly reduced”, the “4-hydroxynonenenal immunostaining (lipid peroxidation)” value (G93A mice; spinal cord) was “markedly reduced” and the “tBHP-induced mitochondrial toxicity/dysfunction (MTT)” value (N2A cells [3]; tBHP 50-100 μM, 24 h) was “dose-dependently reduced”. The “mitochondrial function, peptide alone” value (N2A cells [3]; without tBHP) was “no effect”.
